Legend:
IKZF3 [1] = target: T1, IKZF3 (Homo sapiens, UniProt Q96SW2+Q9UKT9); assay: Western blotting of IKZF3 protein level in 293FT cells; type: cell-based; conditions: 293FT cells, SI Figure S1A
GSPT1 [2] = assay: Western blotting of GSPT1 protein level in 293FT cells; type: cell-based; conditions: SI Figure S1A
NSD2 [3] = target: T2, NSD2 (Homo sapiens, UniProt O96028); assay: Western blotting of NSD2 protein level in KMS11 cells; type: cell-based
T2 sequence (O96028 1-1365): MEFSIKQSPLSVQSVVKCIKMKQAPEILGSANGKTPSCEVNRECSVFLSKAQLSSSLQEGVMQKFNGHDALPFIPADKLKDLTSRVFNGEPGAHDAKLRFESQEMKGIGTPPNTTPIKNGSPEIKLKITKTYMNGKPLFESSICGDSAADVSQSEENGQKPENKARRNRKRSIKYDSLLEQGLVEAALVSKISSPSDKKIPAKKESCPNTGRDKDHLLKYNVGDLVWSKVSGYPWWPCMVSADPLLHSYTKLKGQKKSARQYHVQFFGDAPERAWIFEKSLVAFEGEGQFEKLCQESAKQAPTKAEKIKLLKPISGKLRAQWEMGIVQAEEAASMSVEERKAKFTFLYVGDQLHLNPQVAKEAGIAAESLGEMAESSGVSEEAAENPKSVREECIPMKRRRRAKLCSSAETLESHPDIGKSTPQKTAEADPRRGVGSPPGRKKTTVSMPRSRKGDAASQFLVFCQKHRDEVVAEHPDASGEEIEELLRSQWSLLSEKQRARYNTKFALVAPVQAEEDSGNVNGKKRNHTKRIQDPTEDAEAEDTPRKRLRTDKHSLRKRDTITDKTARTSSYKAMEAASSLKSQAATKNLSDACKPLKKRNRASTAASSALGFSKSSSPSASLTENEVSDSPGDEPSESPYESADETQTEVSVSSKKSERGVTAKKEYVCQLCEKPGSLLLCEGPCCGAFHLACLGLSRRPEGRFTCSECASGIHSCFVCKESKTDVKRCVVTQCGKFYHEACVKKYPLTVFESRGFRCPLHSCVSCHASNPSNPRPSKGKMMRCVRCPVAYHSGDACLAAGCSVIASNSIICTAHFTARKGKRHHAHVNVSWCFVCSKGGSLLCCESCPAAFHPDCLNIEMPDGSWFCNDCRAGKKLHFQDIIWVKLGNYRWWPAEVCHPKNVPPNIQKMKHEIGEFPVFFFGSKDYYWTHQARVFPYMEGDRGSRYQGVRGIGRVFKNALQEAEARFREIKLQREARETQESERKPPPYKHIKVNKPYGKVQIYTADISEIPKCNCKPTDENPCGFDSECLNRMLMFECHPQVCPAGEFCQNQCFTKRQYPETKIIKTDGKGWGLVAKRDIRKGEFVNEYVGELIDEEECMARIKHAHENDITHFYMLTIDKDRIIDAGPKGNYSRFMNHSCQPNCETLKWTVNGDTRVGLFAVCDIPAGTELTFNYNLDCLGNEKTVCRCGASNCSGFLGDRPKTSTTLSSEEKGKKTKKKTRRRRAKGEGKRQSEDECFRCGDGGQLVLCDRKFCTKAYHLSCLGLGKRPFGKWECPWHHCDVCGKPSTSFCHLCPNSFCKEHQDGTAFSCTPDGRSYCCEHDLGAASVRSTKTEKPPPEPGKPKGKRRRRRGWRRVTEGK

NSD2 [4] = target: T2, NSD2; assay: Western blotting of NSD2 protein level in H929 cells; type: cell-based
NSD2 [5] = target: T2, NSD2; assay: Western blotting of NSD2 protein level in 293FT cells; type: cell-based; conditions: 293FT cells; for NSD2 degradation: SI Figure S1A
GSPT1 [6] = assay: Western blotting of GSPT1 protein level in KMS11 cells; type: cell-based, Human; conditions: 2.5 μM, 72 h
IKZF1 [7] = target: T3, IKZF1 (Homo sapiens, UniProt Q13422+Q96SW2); assay: Western blotting of IKZF1 protein level in KMS11 cells; type: cell-based; conditions: 2.5 μM, 72 h
IKZF3 [8] = target: T1, IKZF3; assay: Western blotting of IKZF3 protein level in KMS11 cells; type: cell-based; conditions: 2.5 μM, 72 h
GSPT1 [9] = assay: Western blotting of GSPT1 protein level in H929 cells; type: cell-based, Human; conditions: 2.5 μM, 72 h
IKZF1 [10] = target: T3, IKZF1; assay: Western blotting of IKZF1 protein level in H929 cells; type: cell-based; conditions: 2.5 μM, 72 h
IKZF3 [11] = target: T1, IKZF3; assay: Western blotting of IKZF3 protein level in H929 cells; type: cell-based; conditions: 2.5 μM, 72 h
KMS11 cells = assay: Cell growth inhibition assay in KMS11 cells; type: cell-based, Human; conditions: 2.5 μM, 8 days
H929 cells = assay: Cell growth inhibition assay in H929 cells; type: cell-based, Human; conditions: 2.5 μM, 8 days
NSD2-PWWP1 domain = target: T4, NSD2-PWWP1 domain (Homo sapiens, UniProt O96028); assay: Isothermal titration calorimetry; conditions: ITC, inverse titration, 50 mM Tris-HCl pH 6.8, 25 °C; mean ± SD from two independent experiments
T4 sequence (O96028 208-369): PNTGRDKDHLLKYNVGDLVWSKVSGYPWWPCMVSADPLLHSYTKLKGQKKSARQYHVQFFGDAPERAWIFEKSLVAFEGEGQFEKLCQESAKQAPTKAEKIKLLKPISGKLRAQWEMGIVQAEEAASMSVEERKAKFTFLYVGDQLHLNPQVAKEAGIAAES

T1 sequence (Q9UKT9 whole entry): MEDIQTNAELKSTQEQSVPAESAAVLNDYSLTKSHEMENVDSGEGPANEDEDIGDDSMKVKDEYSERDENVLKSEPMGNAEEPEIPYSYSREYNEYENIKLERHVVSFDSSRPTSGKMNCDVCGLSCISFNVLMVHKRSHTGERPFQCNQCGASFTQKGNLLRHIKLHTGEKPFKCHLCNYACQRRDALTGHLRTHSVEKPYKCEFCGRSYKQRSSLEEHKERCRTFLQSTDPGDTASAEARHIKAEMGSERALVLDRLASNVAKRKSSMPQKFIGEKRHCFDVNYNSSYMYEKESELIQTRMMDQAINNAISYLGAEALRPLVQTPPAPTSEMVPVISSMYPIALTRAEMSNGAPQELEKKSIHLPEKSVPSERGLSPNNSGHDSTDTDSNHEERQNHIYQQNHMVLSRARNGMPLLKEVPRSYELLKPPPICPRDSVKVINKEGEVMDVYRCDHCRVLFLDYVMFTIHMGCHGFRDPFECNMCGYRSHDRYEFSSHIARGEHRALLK
T1 sequence (Q96SW2 whole entry): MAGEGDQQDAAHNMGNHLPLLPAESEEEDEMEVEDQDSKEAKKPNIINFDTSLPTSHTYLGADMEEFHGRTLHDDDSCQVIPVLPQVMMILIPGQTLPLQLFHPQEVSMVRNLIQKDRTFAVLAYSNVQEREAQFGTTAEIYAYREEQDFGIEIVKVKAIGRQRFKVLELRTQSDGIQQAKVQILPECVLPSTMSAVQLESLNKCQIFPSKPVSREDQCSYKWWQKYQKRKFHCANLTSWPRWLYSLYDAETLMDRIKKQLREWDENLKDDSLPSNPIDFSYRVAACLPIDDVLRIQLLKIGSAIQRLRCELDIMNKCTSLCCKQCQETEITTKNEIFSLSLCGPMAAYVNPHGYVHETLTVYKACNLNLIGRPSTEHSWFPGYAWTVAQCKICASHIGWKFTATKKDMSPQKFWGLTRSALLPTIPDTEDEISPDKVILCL
T1 sequence (Q16531 whole entry partner): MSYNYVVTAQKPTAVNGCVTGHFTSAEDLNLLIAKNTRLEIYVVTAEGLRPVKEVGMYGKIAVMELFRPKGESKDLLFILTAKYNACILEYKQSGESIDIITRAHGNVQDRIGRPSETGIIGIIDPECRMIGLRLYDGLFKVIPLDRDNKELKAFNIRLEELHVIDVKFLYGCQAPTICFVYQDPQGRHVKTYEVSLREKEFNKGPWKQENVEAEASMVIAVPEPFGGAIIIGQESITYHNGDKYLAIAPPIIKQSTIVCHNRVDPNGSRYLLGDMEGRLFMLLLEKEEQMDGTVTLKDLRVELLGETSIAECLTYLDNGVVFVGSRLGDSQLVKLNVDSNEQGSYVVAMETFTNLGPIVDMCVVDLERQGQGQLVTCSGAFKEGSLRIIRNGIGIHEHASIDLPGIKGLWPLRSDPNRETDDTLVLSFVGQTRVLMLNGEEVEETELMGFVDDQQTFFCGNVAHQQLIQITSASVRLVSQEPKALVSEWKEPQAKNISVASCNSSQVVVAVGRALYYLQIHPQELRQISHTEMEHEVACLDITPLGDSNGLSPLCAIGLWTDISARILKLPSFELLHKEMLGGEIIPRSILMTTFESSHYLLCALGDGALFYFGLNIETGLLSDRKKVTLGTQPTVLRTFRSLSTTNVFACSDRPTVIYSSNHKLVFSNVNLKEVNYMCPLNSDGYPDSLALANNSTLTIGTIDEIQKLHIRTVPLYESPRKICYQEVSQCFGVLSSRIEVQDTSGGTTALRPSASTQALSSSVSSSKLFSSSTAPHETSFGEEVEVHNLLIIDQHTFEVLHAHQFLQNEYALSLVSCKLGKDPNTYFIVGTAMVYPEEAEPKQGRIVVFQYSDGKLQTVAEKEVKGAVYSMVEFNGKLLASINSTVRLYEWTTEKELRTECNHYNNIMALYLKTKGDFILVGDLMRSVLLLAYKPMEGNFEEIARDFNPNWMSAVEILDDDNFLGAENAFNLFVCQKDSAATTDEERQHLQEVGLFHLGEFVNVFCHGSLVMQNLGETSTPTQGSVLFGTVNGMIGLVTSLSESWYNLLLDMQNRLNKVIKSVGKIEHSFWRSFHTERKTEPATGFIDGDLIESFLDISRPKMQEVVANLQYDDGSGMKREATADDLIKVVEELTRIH
T3 sequence (Q13422 whole entry): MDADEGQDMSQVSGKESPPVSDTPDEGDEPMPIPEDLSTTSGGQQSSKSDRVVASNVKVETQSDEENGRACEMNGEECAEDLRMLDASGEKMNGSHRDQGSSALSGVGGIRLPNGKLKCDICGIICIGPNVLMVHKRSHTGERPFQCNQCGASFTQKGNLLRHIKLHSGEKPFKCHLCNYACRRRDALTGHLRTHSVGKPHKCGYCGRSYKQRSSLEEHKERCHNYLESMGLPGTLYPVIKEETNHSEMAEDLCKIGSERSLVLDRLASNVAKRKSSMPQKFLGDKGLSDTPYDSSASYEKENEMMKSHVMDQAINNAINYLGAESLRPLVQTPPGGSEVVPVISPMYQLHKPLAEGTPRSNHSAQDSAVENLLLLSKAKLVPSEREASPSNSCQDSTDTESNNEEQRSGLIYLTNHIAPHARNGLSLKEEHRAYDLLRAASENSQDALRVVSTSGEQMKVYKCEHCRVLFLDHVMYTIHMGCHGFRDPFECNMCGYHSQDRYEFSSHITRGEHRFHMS
T3 sequence (Q96SW2 whole entry): as the sequence (Q96SW2 whole entry) above
T3 sequence (Q16531 whole entry partner): as the sequence (Q16531 whole entry partner) above

IKZF3 degradation (IKZF3 [1])	NSD2 degradation (NSD2 [3]; SI Figure S1B)	NSD2 degradation (NSD2 [4]; SI Figure S1B)	NSD2 degradation (NSD2 [5]; 2.5 μM)	NSD2 degradation (NSD2 [5]; 10 μM)	NSD2 degradation (NSD2 [5]; 0.1 and 0.5 μM)	IKZF1 protein level (IKZF1 [7])	IKZF3 protein level (IKZF3 [8])	IKZF1 protein level (IKZF1 [10])	IKZF3 protein level (IKZF3 [11])	NSD2 degradation (NSD2 [3]; 2.5 μM, 72 h)	NSD2 degradation (NSD2 [4]; 2.5 μM, 72 h)	Kd (NSD2-PWWP1 domain)	Compound	GSPT1 degradation (GSPT1 [2])	NSD2 protein level (NSD2 [5]; 2.5 and 10 μM, 48 h, Figure 2)	GSPT1 degradation (GSPT1 [6])	GSPT1 degradation (GSPT1 [9])	Cell growth inhibition (KMS11 cells)	Cell growth inhibition (H929 cells)
did not degrade GSPT1 or IKZF3	ineffective in degrading NSD2	ineffective in degrading NSD2	confirmed the NSD2 degradation effect	hook affect	did not induce NSD2 degradation								Cc1ncsc1-c1ccc(CNC(=O)[C@@H]2C[C@@H](O)CN2C(=O)[C@@H](NC(=O)CCOCCOCCNC(=O)c2ccc(NC(=O)c3ccc(CN(C(=O)c4ccc5c(c4)OCC(=O)N5)C4CC4)cc3)cc2)C(C)(C)C)cc1 [Compound 1, N-Cyclopropyl-N-(4-((4-((2-(2-(3-(((S)-1-((2S,4R)-4-hydroxy-2-((4-(4-methylthiazol-5-yl)benzyl)carbamoyl)pyrrolidin-1-yl)-3,3-dimethyl-1-oxobutan-2-yl)amino)-3-oxopropoxy)ethoxy)ethyl)-carbamoyl)phenyl)carbamoyl)benzyl)-3-oxo-3,4-dihydro-2H-benzo[b][1,4]oxazine-7-carboxamide]	did not degrade GSPT1 or IKZF3	clearly reduced the NSD2 protein level with a slight hook effect at 10μM				
						did not display any degradation effect	did not display any degradation effect	did not display any degradation effect	did not display any degradation effect	did not induce obvious NSD2 degradation	did not induce obvious NSD2 degradation		CN1C(=O)CCC(N2C(=O)c3cccc(NCC(=O)NCCCOc4ccc(NC(=O)c5ccc(CN(C(=O)c6ccc7c(c6)OCC(=O)N7)C6CC6)cc5)nc4)c3C2=O)C1=O (stereo not shown) [Compound 17, N-Cydopropyl-N-(4-((5-(3-(2-((2-(1-methyl-2,6-dioxopiperidin-3-yl)-1,3-dioxoisoindolin-4-yl)amino)acetamido)propoxy)pyridin-2-yl)carbamoyl)benzyl)-3-oxo-3,4-dihydro-2H-benzo[b][1,4]oxazine-7-carboxamide]			did not degrade GSPT1	did not degrade GSPT1	showed little effect on cell growth inhibition	showed little effect on cell growth inhibition
						clearly reduced the IKZF1 protein level		clearly reduced the IKZF1 protein level		did not induce obvious NSD2 degradation	did not induce obvious NSD2 degradation	did not show any appreciable binding	CC(C)N(Cc1ccc(C(=O)Nc2ccc(OCCCNC(=O)CNc3cccc4c3C(=O)N(C3CCC(=O)NC3=O)C4=O)cn2)cc1)C(=O)c1ccc2c(c1)OCC(=O)N2 (stereo not shown) [Compound 18, N-(4-((5-(3-(2-((2-(2,6-Dioxopiperidin-3-yl)-1,3-dioxoisoindolin-4-yl)amino)acetamido)propoxy)pyridin-2-yl)carbamoyl)benzyl)-N-isopropyl-3-oxo-3,4-dihydro-2H-benzo[b][1,4]oxazine-7-carboxamide]			did not degrade GSPT1	did not degrade GSPT1	displayed some growth inhibition	displayed some growth inhibition
						did not display any degradation effect	did not display any degradation effect	did not display any degradation effect	did not display any degradation effect				O=C1COc2cc(C(=O)N(Cc3ccc(C(=O)Nc4ccncn4)cc3)C3CC3)ccc2N1 [UNC6934, reference compound]						

From PMC9378504 (Journal of medicinal chemistry, 2022)
